Measured values from patent publication US11491157B2, “Cycloalkyl substituted pyrazolopyrimidines having activity against RSV” (priority 2018, dated 2022).
Counter-ions that a name gives are not always drawn.

How the values were obtained:
rgRSV224 virus = assay: Antiviral activity: rgRSV224 (GFP) replication in HeLa cells; conditions: human respiratory syncytial virus, 72 h, read-out: RSV HELA EC50
Method: (§1) Black 384-well clear-bottom microtiter plates (Corning, Amsterdam, The Netherlands) were filled via acoustic drop ejection using the echo liquid handler (Labcyte, Sunnyvale, Calif.). 200 nL of compound stock solutions (100% DMSO) were transferred to the assay plates. 9 serial 4-fold dilutions of compound were made, creating per quadrant the same compound concentration. The assay was initiated by adding 10 μL of culture medium to each well (RPMI medium without phenol red, 10% FBS-heat inactivated, 0.04% gentamycin (50 mg/mL). All addition steps are done by using a multidrop dispenser (Thermo Scientific, Erembodegem, Belgium). Next, rgRSV224 virus (MOI=1) diluted in culture medium was added to the plates. rgRSV224 virus is an engineered virus that includes an additional GFP gene (Hallak L K, Spillmann D, Collins P L, Peeples M E. Glycosaminoglycan sulfation requirements for respiratory syncytial virus infection; Journal of virology (2000), 74(22), 10508-13) and was in-licensed from the NIH (Bethesda, Md., USA). Finally, 20 μL of a HeLa cell suspension (3,000 cells/well) were plated. Medium, virus- and mock-infected controls were included in each test. The wells contain 0.05% DMSO per volume. Cells were incubated at 37° C. in a 5% CO2 atmosphere. Three days post-virus exposure, viral replication was quantified by measuring GFP expression in the cells by an in house developed MSM laser microscope (Tibotec, Beerse, Belgium). The EC50 was defined as the 50% inhibitory concentration for GFP expression. In parallel, compounds were incubated for three days in a set of white 384-well microtiter plates (Corning) and the cytotoxicity of compounds in HeLa cells was determined by measuring the ATP content of the cells using the ATPlite kit (Perkin Elmer, Zaventem, Belgium) according to the manufacturer's instructions. The CC50 was defined as the 50% concentration for cytotoxicity.

in vitro = conditions: human
Method: as §1

Structure (SMILES) | melting point [°C] | EC50 (rgRSV224 virus) [nM] | CC50 at 3 days (in vitro) [nM]
C[C@@H]1c2cc(F)sc2CCN1C(=O)c1cc(C2CC2)n2nc(-c3ccc([C@H]4C[C@@H]4C(N)=O)cc3F)cc2n1 (relative stereo) [Compound 11, (1S,2S)-2-(4-{7-Cyclopropyl-5-[(4*R)-2-fluoro-4-methyl-4,5,6,7-tetrahydro-thieno[3,2-c]pyridine-5-carbonyl]pyrazolo[1,5-a]pyrimidin-2-yl}-3-fluorophenyl)cyclopropane-1-carboxamide] | 300.14 | 44 | 
C[C@@H]1c2ccccc2CCN1C(=O)c1cc(-c2ccccc2)n2nc(-c3ccc([C@@H]4C[C@H]4C(=O)NS(C)(=O)=O)cc3F)cc2n1 (single isomer, unassigned) (as salt: salt) [Compound 32, (1*R,2*R)-2-(3-Fluoro-4-{5-[(1R)-1-methyl-1,2,3,4-tetrahydroisoquinoline-2-carbonyl]-7-phenylpyrazolo[1,5-a]pyrimidin-2-yl}phenyl)-N-methanesulfonyl-cyclopropane-1-carboxamide; propan-2-amine salt] | 186.79 |  | 
C[C@@H]1c2ccsc2CCN1C(=O)c1cc(C2CC2)n2nc(-c3ccc([C@H]4C[C@@H]4C(N)=O)cc3F)cc2n1 (single isomer, unassigned) [Compound 10, (1S,2S)-2-(4-{7-Cyclopropyl-5-[(4*R)-4-methyl-4,5,6,7-tetrahydro-thieno[3,2-c]pyridine-5-carbonyl]pyrazolo[1,5-a]pyrimidin-2-yl}-3-fluorophenyl)cyclopropane-1-carboxamide] | 302.9 | 14 | > 25000
C[C@@H]1c2ccsc2CCN1C(=O)c1cc(C2CC2)n2nc(-c3ccc([C@H]4C[C@@H]4C(=O)NS(C)(=O)=O)cc3F)cc2n1 (single isomer, unassigned) [Compound 28, (1S,2S)-2-(4-{7-Cyclopropyl-5-[(4*R)-4-methyl-4,5,6,7-tetrahydro-thieno[3,2-c]pyridine-5-carbonyl]pyrazolo[1,5-a]pyrimidin-2-yl}-3-fluorophenyl)-N-methanesulfonyl-cyclopropane-1-carboxamide] | 286.12 | 37 | 53400
C[C@@H]1c2ccccc2CCN1C(=O)c1cc(C2CC2)n2nc(-c3ccc([C@H]4C[C@@H]4c4nnn[nH]4)cc3F)cc2n1 [Compound 4, (1R)-2-(7-Cyclopropyl-2-{2-fluoro-4-[(1S,2S)-2-(1H-1,2,3,4-tetrazol-5-yl)cyclopropyl]phenyl}pyrazolo[1,5-a]pyrimidine-5-carbonyl)-1-methyl-1,2,3,4-tetrahydroisoquinoline] | 254.07 | 120 | 44000
C[C@@H]1c2ccccc2CCN1C(=O)c1cc(C2CC2)n2nc(-c3ccc([C@H]4C[C@@H]4C(N)=O)cc3F)cc2n1 [Compound 7, (1S,2S)-2-(4-{7-Cyclopropyl-5-[(1R)-1-methyl-1,2,3,4-tetrahydroisoquinoline-2-carbonyl]pyrazolo[1,5-a]pyrimidin-2-yl}-3-fluorophenyl)cyclopropane-1-carboxamide] | 280.69 | 30 | > 100000
CNC(=O)[C@H]1C[C@@H]1c1ccc(-c2cc3nc(C(=O)N4CCc5ccccc5[C@H]4C)cc(C4CC4)n3n2)c(F)c1 [Compound 12, (1S,2S)-2-(4-{7-Cyclopropyl-5-[(1R)-1-methyl-1,2,3,4-tetrahydroisoquinoline-2-carbonyl]pyrazolo[1,5-a]pyrimidin-2-yl}-3-fluorophenyl)-N-methylcyclopropane-1-carboxamide] | 258.18 | 24 | > 100000
CCCNC(=O)[C@H]1C[C@@H]1c1ccc(-c2cc3nc(C(=O)N4CCc5ccccc5[C@H]4C)cc(C4CC4)n3n2)c(F)c1 [Compound 15, (1S,2S)-2-(4-{7-Cyclopropyl-5-[(1R)-1-methyl-1,2,3,4-tetrahydroisoquinoline-2-carbonyl]pyrazolo[1,5-a]pyrimidin-2-yl}-3-fluorophenyl)-N-propylcyclopropane-1-carboxamide] | 238.1 | 408 | > 100000
C=CCNC(=O)[C@H]1C[C@@H]1c1ccc(-c2cc3nc(C(=O)N4CCc5ccccc5[C@H]4C)cc(C4CC4)n3n2)c(F)c1 [Compound 16, (1S,2S)-2-(4-{7-Cyclopropyl-5-[(1R)-1-methyl-1,2,3,4-tetrahydroisoquinoline-2-carbonyl]pyrazolo[1,5-a]pyrimidin-2-yl}-3-fluorophenyl)-N-(prop-2-en-1-yl)cyclopropane-1-carboxamide] | 240.35 | 263 | > 100000
C[C@@H]1c2ccccc2CCN1C(=O)c1cc(C2CC2)n2nc(-c3ccc([C@H]4C[C@@H]4C(=O)NCCC#N)cc3F)cc2n1 [Compound 18, (1S,2S)—N-(2-Cyanoethyl)-2-(4-{7-cyclopropyl-5-[(1R)-1-methyl-1,2,3,4-tetrahydro-isoquinoline-2-carbonyl]pyrazolo[1,5-a]pyrimidin-2-yl}-3-fluorophenyl)cyclopropane-1-carboxamide] | 212.72 | 76 | > 100000
C[C@@H]1c2ccccc2CCN1C(=O)c1cc(C2CC2)n2nc(-c3ccc([C@H]4C[C@@H]4C(=O)NC4COC4)cc3F)cc2n1 [Compound 19, (1S,2S)-2-(4-{7-Cyclopropyl-5-[(1R)-1-methyl-1,2,3,4-tetrahydroisoquinoline-2-carbonyl]-pyrazolo[1,5-a]pyrimidin-2-yl}-3-fluorophenyl)-N-(oxetan-3-yl)cyclopropane-1-carboxamide] | 248.97 | 95 | > 100000
C[C@@H]1c2ccccc2CCN1C(=O)c1cc(C2CC2)n2nc(-c3ccc([C@H]4C[C@@H]4C(=O)NS(C)(=O)=O)cc3F)cc2n1 [Compound 24, (1S,2S)-2-(4-{7-Cyclopropyl-5-[(1R)-1-methyl-1,2,3,4-tetrahydroisoquinoline-2-carbonyl]pyrazolo[1,5-a]pyrimidin-2-yl}-3-fluorophenyl)-N-methanesulfonyl-cyclopropane-1-carboxamide] | 166.75 | 20 | 44900
CCS(=O)(=O)NC(=O)[C@H]1C[C@@H]1c1ccc(-c2cc3nc(C(=O)N4CCc5ccccc5[C@H]4C)cc(C4CC4)n3n2)c(F)c1 [Compound 25, (1S,2S)-2-(4-{7-Cyclopropyl-5-[(1R)-1-methyl-1,2,3,4-tetrahydroisoquinoline-2-carbonyl]pyrazolo[1,5-a]pyrimidin-2-yl}-3-fluorophenyl)-N-(ethanesulfonyl)-cyclopropane-1-carboxamide] | 171.93 | 34 | 51900
CC(C)CS(=O)(=O)NC(=O)[C@H]1C[C@@H]1c1ccc(-c2cc3nc(C(=O)N4CCc5ccccc5[C@H]4C)cc(C4CC4)n3n2)c(F)c1 [Compound 26, (1S,2S)-2-(4-{7-Cyclopropyl-5-[(1R)-1-methyl-1,2,3,4-tetrahydroisoquinoline-2-carbonyl]pyrazolo[1,5-a]pyrimidin-2-yl}-3-fluorophenyl)-N-(2-methylpropanesulfonyl)-cyclopropane-1-carboxamide] | 160.53 | 138 | 52100
C[C@@H]1c2ccccc2CCN1C(=O)c1cc(C2CC2)n2nc(-c3ccc([C@H]4C[C@@H]4O)cc3F)cc2n1 [Compound 38, (1S,2R)-2-(4-{7-Cyclopropyl-5-[(1R)-1-methyl-1,2,3,4-tetrahydroisoquinoline-2-carbonyl]pyrazolo[1,5-a]pyrimidin-2-yl}-3-fluorophenyl)cyclopropan-1-ol] |  | 159 | 50400
C[C@@H]1c2ccccc2CCN1C(=O)c1cc(C2CC2)n2nc(-c3ccc([C@H]4C[C@H](CO)C4)cc3F)cc2n1 [Compound 41, [trans-3-(4-{7-Cyclopropyl-5-[(1R)-1-methyl-1,2,3,4-tetrahydroisoquinoline-2-carbonyl]pyrazolo[1,5-a]pyrimidin-2-yl}-3-fluorophenyl)cyclobutyl]methanol] |  | 152 | 49800
C[C@@H]1c2ccccc2CCN1C(=O)c1cc(C2CC2)n2nc(-c3ccc([C@H]4C[C@H](COC(N)=O)C4)cc3F)cc2n1 [Compound 43, [trans-3-(4-{7-Cyclopropyl-5-[(1R)-1-methyl-1,2,3,4-tetrahydroisoquinoline-2-carbonyl]pyrazolo[1,5-a]pyrimidin-2-yl}-3-fluorophenyl)cyclobutyl]methyl carbamate] |  | 307 | > 100000
C[C@@H]1c2ccccc2CCN1C(=O)c1cc(C2CC2)n2nc(-c3ccc([C@H]4C[C@H](CC(N)=O)C4)cc3F)cc2n1 [Compound 45, 2-[trans-3-(4-{7-Cyclopropyl-5-[(1R)-1-methyl-1,2,3,4-tetrahydroisoquinoline-2-carbonyl]pyrazolo[1,5-a]pyrimidin-2-yl}-3-fluorophenyl)cyclobutyl]acetamide] |  | 146 | 29500
C[C@@H]1c2ccccc2CCN1C(=O)c1cc(C2CC2)n2nc(-c3ccc([C@H]4C[C@@H](CC(N)=O)C4)cc3F)cc2n1 [Compound 46, 2-[cis-3-(4-{7-Cyclopropyl-5-[(1R)-1-methyl-1,2,3,4-tetrahydroisoquinoline-2-carbonyl]pyrazolo[1,5-a]pyrimidin-2-yl}-3-fluorophenyl)cyclobutyl]acetamide] |  | 145 | 30400
CNC(=O)C[C@H]1C[C@H](c2ccc(-c3cc4nc(C(=O)N5CCc6ccccc6[C@H]5C)cc(C5CC5)n4n3)c(F)c2)C1 [Compound 47, N-methyl-2-[trans-3-(4-{7-cyclopropyl-5-[(1R)-1-methyl-1,2,3,4-tetrahydroisoquinoline-2-carbonyl]pyrazolo[1,5-a]pyrimidin-2-yl}-3-fluorophenyl)cyclobutyl]acetamide] |  | 148 | 25800
